Experimental findings from US20250281465A1, “MOLECULES THAT ENHANCE EXTRACELLULAR VESICLE RELEASE” (priority 2022, published 2025) are described below.

In test [1] the test system is mBMDCs. The test can be described thus: EV release from mBMDCs (differential ultracentrifugation, MRPS). The note with it: for number of EV particles released in the culture supernatant: 46-48 h, vs Veh.
Another test concerns THP-1 cells. The test is described as follows: Intracellular Ca2+ influx screening (Fura-2) in THP-1 cells. Format: cell-based, human. On the procedure: (§1) FIGS. 1A-1D. Intracellular Ca^2+ influx screening of 84 HTS hit candidate compounds. (A) THP-1 cells were loaded with the ratiometric Ca^2+ indicator, Fura-2, and treated with lonomycin (ION, 1 μM), Thapsigargin (1 μM), or 84 hit candidate compounds (10 μM) for 25 minutes. Data are presented as the area under the curve (AUG) of OD340/380 ratios corresponding to the intracellular Ca^2+ kinetics. The baseline-subtracted AUG was calculated using GraphPad Prism (GraphPad Software, San Diego, CA). (B) Ca^2+ mobilization by compound #634. mBMDCs were loaded with the ratiometric Ca^2+ indicator, Fura-8, and treated with ION (1 μM), or #634 (2 and 10 μM) for 25 minutes. The dashed line indicates the timing of compounds added. The data shown are representative of three independent experiments showing similar results. (C) Ca^2+ add-back assay. Fura-8-loaded mBMDC were treated with ION (1 μM), or compound #634 (2 μM, 10 μM) for 15 minutes in the absence of extracellular Ca^2+, and then Ca^2+ (final 1.8 mM) was added at 15 minutes. Data shown are representative of three independent experiments showing similar results. (D) C57BL/6 mice (n=5/group) were intramuscularly immunized with ovalbumin (OVA, 20 μg/mouse) adjuvanted with compound #634 (200 nmol/mouse), or Veh (10% DMSO) on days 0 and 21 and bled on day 28. OVA-specific IgGI and IgG2c levels in sera were determined by ELISA. **p<0.01, ***p<0.001, ns (not significant) by KruskalWallis tests with Dunn's post hoc test vs. Veh.
FIGS. 18A-18C. Compound 634 induces intracellular Ca^2+ levels in mBMDCs. […] The time-response pattern of intracellular Ca^2+ levels was recorded for 25 minutes. AUC of OD340/380 ratios corresponds to the intracellular Ca^2+ kinetics, and the baseline-subtracted AUC was calculated by GraphPad Prism. […]
FIGS. 24A-24B. […] The time-response pattern of intracellular Ca^2+ levels was recorded with a plate reader for 25 minutes. (A) The AUC of OD340/380 ratios corresponds to the intracellular Ca^2+ kinetics and the baseline-subtracted AUC was calculated by GraphPad Prism (FIG. 36). […]

For a further test, the system named is mBMDC. The test is described as follows: Ca2+ add-back assay in mBMDC. Type of test: cell-based, mouse. The note with it: for intracellular Ca^2+ after adding Ca^2+ in the medium: Ca^2+ 1.8 mM added at 15 minutes; for intracellular Ca^2+ level without extracellular Ca^2+: Fura-8-loaded mBMDC, 2 μM, 10 μM, 15 minutes, absence of extracellular Ca^2+. On the procedure: as §1
FIGS. 18A-18C. Compound 634 induces intracellular Ca^2+ levels in mBMDCs. (A) Intracellular Ca^2+ influx levels of the top eight compounds. THP-1 cells were loaded with the ratiometric Ca^2+ indicator, Fura-2, and treated with ION (1 μM), TG (1 μM), or test compounds (5 μM). The time-response pattern of intracellular Ca^2+ levels was recorded for 25 minutes. AUC of OD340/380 ratios corresponds to the intracellular Ca^2+ kinetics, and the baseline-subtracted AUC was calculated by GraphPad Prism. […] (B) Ca^2+ mobilization by compounds 456 and 634 in mBMDCs. mBMDCs were loaded with Fura-8 and treated with ION (1 μM), or 634 and 456 (10 μM) for 25 minutes. The dashed line indicates the timing of compounds added. The data shown are representative of three independent experiments showing similar results. (C) Ca^2+ add-back assay. Fura-8-loaded mBMDC were treated with ION (1 μM) or compound 634 (2 μM, 10 μM) for 15 minutes in the absence of extracellular Ca^2+, and then Ca^2+ (final 1.8 mM) was added at 15 minutes. The data shown are representative of three independent experiments showing similar results.

Test [2] deals with mBMDCs. The test is described as follows: Intracellular Ca2+ influx (Fura-2/Fura-8) in mBMDCs. Format: cell-based, mouse. The note with it: for intracellular Ca^2+ influx in mBMDCs (Fura-8): 2 and 10 μM, 25 minutes.

“Also recorded” adds a separate entry of the source.

As for `CCOC(=O)c1c(NS(=O)(=O)c2cccc3nsnc23)sc(C)c1C` [compound 634, Ethyl 2-(benzo[c][1,2,5]thiadiazole-4-sulfonamido)-4,5-dimethylthiophene-3-carboxylate], the “number of EV particles released in the culture supernatant” value with mBMDCs [1] (10 μM) is “significantly increased the number of EVs released”. Besides, in the test with mBMDCs [1] (634 10 μM, 48 hours, p<0.05), the “increase of the number of EVs released compared to Veh control” value is given as 45%. Besides, the “intracellular Ca^2+ (relative AUC of OD340/380)” value with THP-1 cells (validation assay, 5 μM, vs Veh 0.5% DMSO) is “significantly increased intracellular Ca^2+”. Moreover, in the test on mBMDC, the “intracellular Ca^2+ after adding Ca^2+ in the medium” value is “intracellular Ca^2+ levels were restored” and the “intracellular Ca^2+ level without extracellular Ca^2+” value is listed as “did not change the intracellular Ca^2+ concentration”. Moreover, in the test with mBMDCs [2] (10 μM, vs Veh 0.5% DMSO / #634), the “intracellular Ca^2+ influx by 634 and its SAR analogs (Fura-2)” value was “Ca^2+ influx positive”. For the same compound, in the test with mBMDCs [2], the “intracellular Ca^2+ influx in mBMDCs (Fura-8)” value is reported as “induced Ca^2+ influx in mBMDCs; also recorded: comparable to ionomycin”.
As for `CCOC(=O)c1c(NS(=O)(=O)c2cccc3c2N=S=N3)sc(C)c1C` [#634, ethyl 2-(benzo[c][1,2,5]thiadiazole-4-sulfonamido)-4,5-dimethylthiophene-3-carboxylate], in the test with mBMDCs [1] (10 μM), the “release of particles of diameter less than 150 nm” value is listed as “significantly enhanced” and the “number of EV particles released in the culture supernatant” value is given as “increased the number of EV particles released”. Further, in the test with THP-1 cells (hit candidate compounds 10 μM, 25 minutes, vs vehicle control (DMSO)), the “intracellular Ca^2+ increase (Fura-2 assay)” value is “higher intracellular Ca^2+ increase than vehicle control”. Besides, in the test with mBMDC, the “intracellular Ca^2+ after adding Ca^2+ in the medium” value was “intracellular Ca^2+ influx was restored” and the “intracellular Ca^2+ level without extracellular Ca^2+” value is on record as “did not increase intracellular Ca^2+ levels without extracellular Ca^2+”. Further, in the test with mBMDCs [2], the “intracellular Ca^2+ influx in mBMDCs (Fura-8)” value is listed as “rapidly increased intracellular Ca^2+”. For the same compound, the “time intracellular Ca^2+ increase was sustained” value in the test on mBMDCs [2] (Fura-8 assay) is reported as “at least 25 min”.
